The numbers were not newly measured in US20260116929A1, “ANTI-GRAM-NEGATIVE BACTERIAL COMPOUND” (Murata Manufacturing Co., Ltd., priority 2018, published 2026), which cites them from elsewhere.

Among the test systems are gram-negative bacteria; gram-positive bacteria; Vibrio parahaemolyticus.
Conditions in all cases: background statement

Take `C=C1NC(=O)CC[C@@H](C(=O)O)NC(=O)[C@H](NC(=O)[C@H](CCCCN)NC(=O)[C@@H](N)Cc2c[nH]c3ccccc23)CSC[C@@H](C(=O)N[C@@H]2C(=O)N3CCC[C@H]3C(=O)NCC(=O)N[C@H](C(=O)N[C@H](C(=O)N[C@@H]3C(=O)NCC(=O)N[C@@H](C)C(=O)N[C@@H](CC(C)C)C(=O)N[C@@H](CCC(N)=O)C(=O)N/C(=C/C)C(=O)N[C@H](C(=O)N[C@@H](Cc4ccccc4)C(=O)N[C@@H](CC(C)C)C(=O)N[C@@H](CCC(N)=O)C(=O)N[C@@H]4C(=O)N[C@@H](CC(C)C)C(=O)N[C@H]5C(=O)N[C@@H](CSC4C)C(=O)NC(=O)[C@H](CC(N)=O)N[C@H](C(=O)N[C@@H](CCCCN)C(=O)N[C@H](C(=O)NC(=C)C(=O)N[C@@H](CCCCN)C(=O)O)[C@@H](C)CC)CSC5C)CSC3C)C(C)C)CSC2C)N[C@@H](CC(C)C)C(=O)NC1=O` (stereo partly shown) [subtilin]: the “antimicrobial activity against gram-negative bacteria” value with gram-negative bacteria is “not”. The “antimicrobial activity against gram-positive bacteria” value with gram-positive bacteria is “have antimicrobial activities”.

Regarding Nisin, in the series on gram-negative bacteria, the “antimicrobial activity against gram-negative bacteria” value was “not”. Moreover, the “antimicrobial activity against gram-positive bacteria” value with gram-positive bacteria was “has an antimicrobial activity”. Besides, in the series on Vibrio parahaemolyticus, the “antimicrobial activity against Vibrio parahaemolyticus” value is recorded as “no antimicrobial activity”.

Take entianin: the “antimicrobial activity against gram-negative bacteria” value in the series on gram-negative bacteria is given as “not”. Besides, the “antimicrobial activity against gram-positive bacteria” value with gram-positive bacteria was “have antimicrobial activities”.
